Assay results: paper PMC4138103 (PLoS ONE, 2014)
“And” between values parts separate entries of the source, which are not always exact repeats. Identical values can stand only once. Like-named read-outs stand apart in the source and are kept apart here.

System: Sprague-Dawley rats
Experiment: Serum thyroid hormones (FT3, FT4, TSH)
Format: in vivo, Rattus norvegicus
Details: for Emax: Rattus norvegicus; for TSH / fT3 / fT4: group mean
Method: Serum free triiodothyronine (FT3), free thyroxine (FT4) and thyroid stimulating hormone (TSH) were measured by Elecsys 2010 immunochemistry analyzer using Roche FT3, FT4 and TSH reagents (all from Roche Diagnostics GmbH, Mannheim, Germany). The test principle is electrochemiluminescence immunoassay (ECLIA).
Data were also analyzed using the BMD method, which is based on dose-response modeling of the full data set using a nested family of exponential and Hill models. The analyses were done on data of males and females combined, using sex as a covariate. […] In that case, different Critical Effect Doses (CEDs) and CEDs at the lowest bound of the confidence interval (CED-L) were generated for each sex. If no difference between sexes is detected, a CED and CED-Ls for the combined data is generated. However, this was also done if the curve fits are close, and separate analyses for males and females were then performed manually. CEDs and CED-Ls were calculated at the predefined Critical Effect Size (CES) of 5% (EFSA standard) or 10%.

[1] = F, CES 5%, model E2, adipose tissue concentration based
[2] = F, CES 5%, model E2, adipose tissue concentration based, half min value added to zeros
[3] = F, CES 10%, model E2, adipose tissue concentration based
[4] = F, CES 10%, model E2, adipose tissue concentration based, half min value added to zeros
[5] = M, CES 5%, model E4, adipose tissue concentration based
[6] = M, CES 5%, model E4, adipose tissue concentration based, half min value added to zeros
[7] = M, CES 10%, model E4, adipose tissue concentration based
[8] = M, CES 10%, model E4, adipose tissue concentration based, half min value added to zeros
[9] = females, CES 5%, total dose based
[10] = females, CES 5%, total dose based, half min value added to zeros
[11] = females, CES 10%, total dose based
[12] = females, CES 10%, total dose based, half min value added to zeros
[13] = females, adipose tissue concentration based
[14] = females, total dose 10 mg/kg bw
[15] = females, total dose 30 mg/kg bw
[16] = females, total dose 100 mg/kg bw
[17] = females, total dose 300 mg/kg bw
[18] = females, total dose 1000 mg/kg bw
[19] = females, total dose 1700 mg/kg bw
[20] = males, CES 5%, total dose based
[21] = males, CES 5%, total dose based, half min value added to zeros
[22] = males, CES 10%, total dose based
[23] = males, CES 10%, total dose based, half min value added to zeros
[24] = males, adipose tissue concentration based
[25] = males, total dose 1000 mg/kg bw
[26] = males, total dose 1700 mg/kg bw

Clc1cc(Cl)c(-c2cc(Cl)c(Cl)c(Cl)c2Cl)cc1Cl [PCB 180, 2,2′,3′,4,4′,5,5′-heptachlorobiphenyl]
CED, Serum free T3 (S-fT3) [1]: 2280 µg/g lipid | CED, Serum free T4 (S-fT4) [1]: 821 µg/g lipid | CED-L, Serum free T3 (S-fT3) [1]: 1496 µg/g lipid | CED-L, Serum free T4 (S-fT4) [1]: 683 µg/g lipid | CED, Serum TSH [2]: 206 µg/g lipid | CED-L, Serum TSH [2]: 126 µg/g lipid | CED, Serum free T3 (S-fT3) [3]: 4680 µg/g lipid | CED, Serum free T4 (S-fT4) [3]: 1690 µg/g lipid | CED-L, Serum free T3 (S-fT3) [3]: 3072 µg/g lipid | CED-L, Serum free T4 (S-fT4) [3]: 1402 µg/g lipid | CED, Serum TSH [4]: 402 µg/g lipid | CED-L, Serum TSH [4]: 246 µg/g lipid | CED, Serum free T3 (S-fT3) [5]: 428 µg/g lipid | CED, Serum free T4 (S-fT4) [5]: 158 µg/g lipid | CED-L, Serum free T3 (S-fT3) [5]: 196 µg/g lipid | CED-L, Serum free T4 (S-fT4) [5]: 117 µg/g lipid | CED, Serum TSH [6]: 0.29 µg/g lipid | CED-L, Serum TSH [6]: 0.04 µg/g lipid | CED, Serum free T3 (S-fT3) [7]: 976 µg/g lipid | CED, Serum free T4 (S-fT4) [7]: 328 µg/g lipid | CED-L, Serum free T3 (S-fT3) [7]: 449 µg/g lipid | CED-L, Serum free T4 (S-fT4) [7]: 243 µg/g lipid | CED, Serum TSH [8]: 0.58 µg/g lipid | CED-L, Serum TSH [8]: 0.09 µg/g lipid | Emax (F, model E2, controls vs high dose according to the fitted model, read-out: Maximum response, Serum free T3 (S-fT3)): -22.5% | Emax (females, controls vs high dose, fitted model, read-out: Serum free T3 (S-fT3), Maximum response): -21.8% | Emax (males, controls vs high dose, fitted model, read-out: Serum free T3 (S-fT3), Maximum response): -26% | Emax (read-out: Maximum response, Serum free T4 (S-fT4), F, model E2, controls vs high dose according to the fitted model): -50.7% | Emax (read-out: Maximum response, Serum free T4 (S-fT4), M, model E4, controls vs high dose according to the fitted model): -67.2% | Emax (read-out: Serum free T4 (S-fT4), Maximum response, females, controls vs high dose, fitted model): -49.4% | Emax (read-out: Serum free T4 (S-fT4), Maximum response, males, controls vs high dose, fitted model): -66.7% | Emax (model E4, controls vs high dose according to the fitted model, read-out: Maximum response, Serum free T3 (S-fT3)): -25% | fT3, Dose response (females): D, T | fT4, Dose response (females): D, T | Serum free T3 (S-fT3), CED [9]: 354 mg/kg bw | Serum free T3 (S-fT3), CED-L [9]: 233 mg/kg bw | Serum free T4 (S-fT4), CED [9]: 128 mg/kg bw | Serum free T4 (S-fT4), CED-L [9]: 106.6 mg/kg bw | Serum TSH, CED [10]: 32.5 mg/kg bw | Serum TSH, CED-L [10]: 19.9 mg/kg bw | Serum free T3 (S-fT3), CED [11]: 727 mg/kg bw | Serum free T3 (S-fT3), CED-L [11]: 479 mg/kg bw | Serum free T4 (S-fT4), CED [11]: 263 mg/kg bw | Serum free T4 (S-fT4), CED-L [11]: 219 mg/kg bw | Serum TSH, CED [12]: 63.5 mg/kg bw | Serum TSH, CED-L [12]: 38.8 mg/kg bw | Serum free T3, CED [13]: 2280 µg/g lipid | Serum free T4, CED [13]: 821 µg/g lipid | TSH (females, total dose 3 mg/kg bw): 0.047 µIU/ml | fT3 (females, total dose 3 mg/kg bw): 5.72 pmol/L | fT4 (females, total dose 3 mg/kg bw): 22.2 pmol/L | TSH [14]: 0.000136 µIU/ml | fT3 [14]: 5.10 pmol/L | fT4 [14]: 19.1 pmol/L | TSH [15]: 0.00543 µIU/ml | fT3 [15]: 6.17 pmol/L | fT4 [15]: 23.4 pmol/L | TSH [16]: 0.011 µIU/ml | fT3 [16]: 6.20 pmol/L | fT4 [16]: 22.4 pmol/L | TSH [17]: 0.021 µIU/ml | fT3 [17]: 5.68 pmol/L | fT4 [17]: 18.0 pmol/L | TSH [18]: 0.011 µIU/ml | fT3 [18]: 5.16 pmol/L | fT4 [18]: 15.3 pmol/L | TSH [19]: 0.066 µIU/ml | fT3 [19]: 4.70 pmol/L | fT4 [19]: 11.1 pmol/L | Increased serum TSH, CED-L (males): 0.04 µg/g lipid | TSH, Dose response (males): D, T | fT3, Dose response (males): D, T | fT4, Dose response (males): D, T | Serum free T3 (S-fT3), CED [20]: 290 mg/kg bw | Serum free T3 (S-fT3), CED-L [20]: 218 mg/kg bw | Serum free T4 (S-fT4), CED [20]: 38.1 mg/kg bw | Serum free T4 (S-fT4), CED-L [20]: 26.8 mg/kg bw | Serum TSH, CED [21]: 0.07 mg/kg bw and 0.0747 mg/kg bw | Serum TSH, CED-L [21]: 0.0139 mg/kg bw | Serum free T3 (S-fT3), CED [22]: 596 mg/kg bw | Serum free T3 (S-fT3), CED-L [22]: 448 mg/kg bw | Serum free T4 (S-fT4), CED [22]: 79.4 mg/kg bw | Serum free T4 (S-fT4), CED-L [22]: 56.0 mg/kg bw | Serum TSH, CED [23]: 0.149 mg/kg bw | Serum TSH, CED-L [23]: 0.0278 mg/kg bw | Serum TSH, CED [24]: 0.29 µg/g lipid | Serum free T3, CED [24]: 428 µg/g lipid | Serum free T4, CED [24]: 158 µg/g lipid | Serum thyroxine, CED-L [24]: 117000 ng/g lipid | TSH (males, total dose 3 mg/kg bw): 0.021 µIU/ml | fT3 (males, total dose 3 mg/kg bw): 5.74 pmol/L | fT4 (males, total dose 3 mg/kg bw): 25.4 pmol/L | TSH (males, total dose 10 mg/kg bw): 0.057 µIU/ml | fT3 (males, total dose 10 mg/kg bw): 5.58 pmol/L | fT4 (males, total dose 10 mg/kg bw): 28.4 pmol/L | TSH (males, total dose 30 mg/kg bw): 0.059 µIU/ml | fT3 (males, total dose 30 mg/kg bw): 5.77 pmol/L | fT4 (males, total dose 30 mg/kg bw): 27.2 pmol/L | TSH (males, total dose 100 mg/kg bw): 0.089 µIU/ml | fT3 (males, total dose 100 mg/kg bw): 5.39 pmol/L | fT4 (males, total dose 100 mg/kg bw): 21.7 pmol/L | TSH (males, total dose 300 mg/kg bw): 0.075 µIU/ml | fT3 (males, total dose 300 mg/kg bw): 5.24 pmol/L | fT4 (males, total dose 300 mg/kg bw): 17.6 pmol/L | TSH [25]: 0.100 µIU/ml | fT3 [25]: 4.21 pmol/L | fT4 [25]: 11.7 pmol/L | TSH [26]: 0.137 µIU/ml | fT3 [26]: 4.41 pmol/L | fT4 [26]: 8.71 pmol/L
